Data reported in patent US8293705B2, “HCV protease inhibitors and uses thereof” (Avila Therapeutics, Inc., priority 2007, dated 2012).

Legend:
[1] = biological target: T1, HCV NS3/4A 1b protease D168A (Hepatitis C virus genotype 1b, UniProt Q9WMX2, D1194A); experiment: HCV protease FRET assay (IC50), Example 15; format: biochemical
T1 construct: 10× stocks of NS3/4A protease enzyme from Bioenza (Mountain View, Calif.); purchased Bioenza (Mountain View, Calif.)
Description: (§1) The following protocol was used to generate IC50 values as depicted for compound 239 in Table 4, above. The protocol is a modified FRET-based assay (v—02) from In Vitro Resistance Studies of HCV Serine Protease Inhibitors, 2004, JBC, vol. 279, No. 17, pp 17508-17514.
(§2) 10× stocks of NS3/4A protease enzyme from Bioenza (Mountain View, Calif.) and 1.13× 5-FAM/QXL™520 FRET peptide substrate from Anaspec (San Jose, Calif.) were prepared in 50 mM HEPES, pH 7.8, 100 mM NaCl, 5 mM DTT and 20% glycerol. 5 μL of each enzyme were pre-incubated in a Corning (#3573) 384-well, black, non-treated microtiter plate (Corning, N.Y.) for 30 min at 25° C. with a 0.5 μL volume of 50% DMSO and serially diluted compounds prepared in 50% DMSO. Protease reactions were started with the addition of 45 μL of the FRET substrate and monitored for 120 minutes at λex487/λem514 through Quad^4 monochromoters in a Synergy^4 plate reader from BioTek (Winooski, Vt.). At the conclusion of each assay, progress curves from each well were examined for linear reaction kinetics and fit statistics (R^2, absolute sum of squares). Initial velocity (0 minutes to 30+ minutes) from each reaction was determined from the slope of a plot of relative fluorescence units vs time (minutes) and then plotted against inhibitor concentration to estimate IC50 from log [Inhibitor] vs Response, Variable Slope model in GraphPad Prism from GraphPad Software (San Diego, Calif.).
(§3) The compound numbers correspond to the compound numbers in Table 3. […] ;

[2] = biological target: T2, HCV NS3/4A 1b protease wild type (Hepatitis C virus genotype 1b, UniProt Q9WMX2); experiment: HCV protease FRET assay (IC50), Example 15; format: biochemical
T2 construct: 10× stocks of NS3/4A protease enzyme from Bioenza (Mountain View, Calif.); purchased Bioenza (Mountain View, Calif.)
Description: as §1, §2, §3

[3] = biological target: T3, HCV NS3/4A 1b protease A156T (Hepatitis C virus genotype 1b, UniProt Q9WMX2, A1182T); experiment: HCV protease FRET assay (IC50_APP), Example 16; format: biochemical
T3 construct: 10× stocks of NS3/4A protease enzyme from Bioenza (Mountain View, Calif.); purchased Bioenza (Mountain View, Calif.)

[4] = biological target: T1, HCV NS3/4A 1b protease D168A; experiment: HCV protease FRET assay (IC50_APP), Example 16; format: biochemical
[5] = biological target: T4, HCV NS3/4A 1b protease R155K (Hepatitis C virus genotype 1b, UniProt Q9WMX2, R1181K); experiment: HCV protease FRET assay (IC50_APP), Example 16; format: biochemical; conditions: reaction started immediately after enzyme addition, read-out: Inhibition (apparent IC50, IC50_APP), HCV R155K
T4 construct: 10× stocks of NS3/4A protease enzyme from Bioenza (Mountain View, Calif.); purchased Bioenza (Mountain View, Calif.)

[6] = biological target: T2, HCV NS3/4A 1b protease wild type; experiment: HCV protease FRET assay (IC50_APP), Example 16; format: biochemical
[7] = system: HCV RNA replicon in cell line ET (luc-ubi-neo/ET), human Huh7 hepatoma; experiment: HCV RNA replicon assay, Example 14 Method A; format: cell-based; conditions: Hepatitis C virus, Huh-7, assay of Example 14, 72 hr; for IC50: read-out: Inhibition, Replicon (IC50); for IC90: read-out: Inhibition, Replicon, IC90 value
Description: The compounds were assayed to evaluate the antiviral activity and cytotoxicity of compounds in vitro using HCV RNA replicons. This assay used the cell line ET (luc-ubi-neo/ET), which is a human Huh7 hepatoma cell line that contains an HCV RNA replicon with a stable luciferase (Luc) reporter and three cell culture-adaptive mutations. […]
The ET cell line was grown in Dulbecco's modified essential media (DMEM), 10% fetal bovine serum (FBS), 1% penicillin-streptomycin (pen-strep), 1% glutamine, 250 μg/mL G418 in a 5% CO2 incubator at 37° C. All cell culture reagents were obtained from Mediatech (Manassas, Va.). Cells were trypsinized (1% trypsin:EDTA) and plated out at 5×10^3 cells/well in white 96-well assay plates (Costar) dedicated to cell number (cytotoxicity) or antiviral activity assessments. Drugs were added at six 3-fold concentrations each and the assay was run in DMEM, 5% FBS, 1% pen-strep, 1% glutamine. Human interferon alpha-2b (PBL Biolabs, New Brunswick, N.J.) was included in each run as a positive control compound. Cells were processed 72 hr post drug addition when the cells are still subconfluent. Antiviral activity was measured by analyzing replicon-derived luciferase activity using the Steady-Glo Luciferase Assay System (Promega, Madison, Wis.) according to manufacturer's instruction. The number of cells in each well was determined by CytoTox-1 reagent (Promega). Compound profile was derived by calculating applicable EC50 (effective concentration inhibiting virus replication by 50%), EC90 (effective concentration inhibiting virus replication by 90%), IC50 (concentration decreasing cell viability by 50%) and SI50 (selective index: […]) values.

[8] = biological target: T5, HCV NS3/4A mutant A156T protease (Hepatitis C virus genotype 1b, UniProt Q9WMX2, A1182T); experiment: Mass spectrometric analysis of covalent modification (MALDI-TOF); format: binding; conditions: 3 hours, 10× excess of compound
T5 construct: mass spectroscopic analysis of HCV NS3/4A mutant A156T protease in the presence of test compound I-11
Description: (§4) As depicted in FIGS. 4, 5, 6, and 7, mass spectrometric analysis of HCV mutants in the presence of compound I-11 was performed. […] 2 ul aliquots of the samples were diluted with 10 ul of 0.1% TFA prior to micro C4 ZipTipping directly onto the MALDI target using Sinapinic acid as the desorption matrix (10 mg/ml in 0.1% TFA:Acetonitrile 50:50). For intact protein mass measurement the instrument was set in linear mode using a pulsed extraction setting of 24,500 and apomyoglobin as the standard to calibrate the instrument.

[9] = biological target: T6, HCV NS3/4A mutant R155K protease (Hepatitis C virus genotype 1b, UniProt Q9WMX2, R1181K); experiment: as above; format: binding; conditions: 3 hours, 10× excess of compound
T6 construct: mass spectroscopic analysis of HCV NS3/4A mutant R155K protease in the presence of test compound I-11
Description: as §4

[10] = biological target: T7, HCV NS3/4A 1b protease C159S (Hepatitis C virus genotype 1b, UniProt Q9WMX2, C1185S); experiment: HCV protease FRET assay (IC50_APP), Example 16; format: biochemical; conditions: reaction started immediately after enzyme addition, read-out: Inhibition (apparent IC50, IC50_APP), HCV C159S
T7 construct: 10× stocks of NS3/4A protease enzyme from Bioenza (Mountain View, Calif.); purchased Bioenza (Mountain View, Calif.)

[11] = system: HCV RNA replicon in cell line ET (luc-ubi-neo/ET), human Huh7 hepatoma; experiment: Replicon luciferase assay, Example 26; format: cell-based; conditions: Hepatitis C virus, Huh-7, assay of Example 26, 72 hr; for EC50: read-out: Inhibition, Replicon, EC50 value
Description: The compounds were assayed to evaluate the antiviral activity and cytotoxicity of compounds using replicon-derived luciferase activity. This assay used the cell line ET (luc-ubi-neo/ET), which is a human Huh7 hepatoma cell line that contains an HCV RNA replicon with a stable luciferase (Luc) reporter and cell culture-adaptive mutations. The ET cell line was grown in a 5% CO2 incubator at 37° C. in Dulbecco's modified essential media (DMEM) supplemented with 2 mM L-glutamine, nonessential amino acids, 100 U of penicillin/ml, 100 μg of streptomycin/mL, and 10% fetal bovine serum. G418 (Geneticin; Invitrogen) was added at a final concentration of 400 ug//mL.
All cell culture reagents were obtained from Invitrogen (Carlsbad). Cells were trypsinized (1% trypsin:EDTA) and plated out at 5×10^3 cells/well in white 96-well assay plates (Costar) dedicated to cell number (cytotoxicity) or antiviral activity assessments. Test compounds were added at six 3-fold concentrations each and the assay was run in DMEM, 5% FBS, 1% pen-strep, 1% glutamine, 1% non essential amino acid. Human interferon alpha-2b (PBL Biolabs, New Brunswick, N.J.) was included in each run as a positive control compound. Cells were processed 72 hr post test compound addition when the cells were still subconfluent. Antiviral activity was measured by analyzing replicon-derived luciferase activity using the Steady-Glo Luciferase Assay System (Promega, Madison, Wis.) according to manufacturer's instruction. The number of cells in each well was determined by Cell Titer Blue Assay (Promega). Compound profile was derived by calculating applicable EC50 (effective concentration inhibiting virus replication by 50%), EC90 (effective concentration inhibiting virus replication by 90%), IC50 (concentration decreasing cell viability by 50%) and SI50 (selective index: […]) values.

[12] = biological target: T8, NS3 protease self-cleavage in Huh-7-Luc-Neo-ET replicon cells (Hepatitis C virus genotype 1b, UniProt Q9WMX2, E1202G/T1280I); experiment: Inhibition of protease self cleavage in replicon cells (washout); format: cell-based; conditions: 16 hours continuous exposure
T8 construct: blotted with polyclonal anti NS3 antibody (Bioenza, Calif.)
Description: Huh-7-Luc-Neo-ET cells were plated in Replicon Assay Medium (RPMI supplemented with 5% FBS, 1× non-essential amino acids and pen/strep) at a density of 1×10^5 cells/well in 12 well plates. Eight hours later the media was removed and replaced with 1 ml media containing test compound (5 wells per compound) and 0.02% DMSO and the cells were returned to the incubator overnight. Sixteen hours later 1 well from each compound and 1 untreated well were washed with PBS, then lysed and scraped into 30 ul of Cell Extraction Buffer (Biosource, Camarillo, Calif.) plus Complete Protease Inhibitor (Roche, Indianapolis, Ind.). The remaining wells were rinsed 2× with PBS then fed with Replicon Media and returned to the incubator. […]
Cell lysates were separated by SDS-Page (4-20%) and transferred to Immobilon-P PVDF membrane (Millipore Corporation, MA) and blotted with polyclonal anti NS3 antibody (Bioenza, Calif.). Blots were scanned on an Odyssey infrared scanner from Licor and the FL band and cleavage products were quantified separately using the Licor software provided with the scanner. The cleavage product was calculated as a percentage of the total NS3 in each sample and then normalized to the DMSO control so that the DMSO control reflects 100% activity.

[13] = biological target: T3, HCV NS3/4A 1b protease A156T; experiment: HCV protease FRET assay (IC50), Example 15; format: biochemical
Description: as §1, §2, §3

HCV NS3/4A wild type = biological target: T9, HCV NS3/4A wild type (Hepatitis C virus genotype 1b, UniProt Q9WMX2); experiment: Mass spectrometric analysis of covalent modification (MALDI-TOF); format: binding; conditions: 10× excess of test compound to protein
T9 construct: HCV NS3/4A wild type (wt) was incubated for 1 hr at a 10× fold access of test compound to protein; purchased Bioenza, Calif
Method in brief: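 HCV NS3/4A protease (100 pmol wild type; C159S mutant as comparison) incubated with 10-fold molar excess of compound for 1 and 3 h. Samples acidified in 0.1% TFA, C4 ZipTip-desalted, analysed by MALDI-TOF intact-mass measurement in linear mode, sinapinic acid matrix.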

HCV NS3•4A protease WT = HCV NS3•4A protease WT (Hepatitis C virus genotype 1b, UniProt Q9WMX2); experiment: cell-based
[14] = Inhibition (IC50), HCV D168A, FRET, 30 min pre-incubation at 25° C.

SMILES	IC50 [1, 14]	IC50 [2]	IC50 [3]	IC50 [4]	IC50 [5]	IC50 [6]	IC50 [7]	IC90 [7]	Conversion of HCV (A156T) mutant to compound adduct [8]	Conversion of HCV (R155K) mutant to compound adduct [9]	IC50 [10]	EC50 [11]	EC90 ([11]; read-out: Inhibition, Replicon, EC90 value)	NS3 internal self-cleavage products after treatment of replicon cells [12]	IC50 ([13]; Comparative IC50 Values, A156T, biochemical assay, applicant's compound)	IC50 ([13]; Inhibition (IC50), HCV A156T, FRET, 30 min pre-incubation at 25° C.)	IC50 ([1]; Comparative IC50 Values, D168A, biochemical assay, applicant's compound)	Covalent modification of HCV NS3/4A wild type (HCV NS3/4A wild type; MALDI-TOF)	Mass increase of new protein species vs protein with no compound (HCV NS3/4A wild type; 1 hr)	IC50 (HCV NS3•4A protease WT)
C=CC(=O)N(C)C[C@H](NC(=O)OC(C)(C)C)C(=O)N1C[C@H](OC(=O)N2Cc3cccc(F)c3C2)C[C@H]1C(=O)N[C@]1(C(=O)NS(=O)(=O)C2CC2)C[C@H]1C=C [Compound I-11, (3R,5S)-1-((S)-2-(tert-butoxycarbonylamino)-3-(N-methylacrylamido)propanoyl)-5-((1R,2S)-1-(cyclopropylsulfonylcarbamoyl)-2-vinylcyclopropylcarbamoyl)pyrrolidin-3-yl 4-fluoroisoindoline-2-carboxylate]	10 to 100 nM	< 10 nM	< 10 nM	10 to 100 nM	10 to 100 nM	< 10 nM	< 10 nM	10 to 100 nM	complete conversion	good conversion										
C=C[C@@H]1C[C@]1(NC(=O)[C@@H]1CC(OC(=O)N2Cc3cccc(F)c3C2)CN1C(=O)[C@H](CC(=O)C=C(C)C)NC(=O)OC(C)(C)C)C(=O)NS(=O)(=O)C1CC1 (some centres unmarked) [Compound I-32]			< 10 nM	10 to 100 nM	10 to 100 nM	< 10 nM					< 10 nM	< 10 nM								
CC(C)(C)OC(=O)N[C@H]1CN(C(=O)CCl)CCC/C=C\[C@@H]2C[C@@]2(C(=O)NS(=O)(=O)C2CC2)NC(=O)[C@@H]2CC(OC(=O)N3Cc4cccc(F)c4C3)CN2C1=O (some centres unmarked) [Compound I-47]				10 to 100 nM	10 to 100 nM	< 10 nM						10 to 100 nM	100 to 1000 nM	inhibited						
C=CC(=O)NC[C@H](NC(=O)OC(C)(C)C)C(=O)N1C[C@H](OC(=O)N2Cc3cccc(F)c3C2)C[C@H]1C(=O)N[C@]1(C(=O)NS(=O)(=O)C2CC2)C[C@H]1C=C [Compound I-1, (3R,5S)-1-((S)-3-acrylamido-2-(tert-butoxycarbonylamino)propanoyl)-5-((1R,2S)-1-(cyclopropylsulfonylcarbamoyl)-2-vinylcyclopropylcarbamoyl)pyrrolidin-3-yl 4-fluoroisoindoline-2-carboxylate]	< 10 nM	< 10 nM	10 to 100 nM	100 to 1000 nM		< 10 nM	10 to 100 nM	10 to 100 nM							3 nM	< 10 nM	8 nM	reacted significantly	approximately 751 Da	0.66 nM
